From patent US8486953B2, “Thienopyrimidines for pharmaceutical compositions” (Boehringer Ingelheim International GmbH, priority 2008, dated 2013)

What was measured:
[1] = test system: Mnk2 (Mnk2a or Mnk2b) or Mnk1; details: cell culture cells transfected with Mnk2 (Mnk2a or Mnk2b) or Mnk1; cited from earlier work
human Mnk1 = human Mnk1 (Homo sapiens (Human), UniProt Q9BUB5); experiment: Mnk1 in vitro kinase assay (indirect fluorescence polarization); assay type: biochemical
Procedure: (§1) Inhibitory potency of compounds against Mnk1, Mnk2a and other kinases was assessed with assays based on a format known to those skilled in the art as the indirect (competitive) fluorescence polarization. The assay detection system comprises a small fluorophore-labeled phospho-peptide (termed ligand) bound to a phospho-specific antibody. The product generated by the kinase reaction competes with the ligand for antibody binding. Based on the larger molecular volume of the bound ligand, which results in a lower rotation rate in solution, its emitted light has a higher degree of polarization than the one from the free ligand.
(§2) In brief, the open reading frames of human Mnk1 and Mnk2a were amplified from cDNA using the forward/reverse primer pairs
(§3) (utilized restriction sites underlined), respectively, and cloned into the BamHI and SalI sites of the vector pGEX-4T1 (Amersham, Sweden, cat. no. 27-4580-01). These constructs allow prokaryotic expression of Mnk1 or Mnk2a as fusion protein with a N-terminal glutathione S-transferase (GST) tag, referred to as GST-Mnk1 or GST-Mnk2a. The following expression and purification procedure was identical for GST-Mnk1 and GST-Mnk2a, referring in general to GST-Mnk, when not distinguishing between the two isoforms. Expression of GST-Mnk was in E. coli BL21 (Merck Biosciences, Germany, cat. no. 69449). Cells were grown in LB-Bouillon (Merck, Germany, cat. no. 1.10285) supplemented with 100 μg/ml ampicillin (Sigma, Germany, cat. no. A9518) at 37° C. When the culture had reached a density corresponding to an A600 of 0.8, an equal volume of ice cold LB/ampicillin was added, the culture transferred to 25° C. and induced for 4 h with 1 mM isopropyl thiogalactoside (IPTG, Roth, Germany, cat. no. 2316.4). Cells harvested by centrifugation were resuspended in 10 ml lysis buffer (50 mM tris(hydroxymethyl)aminomethane hydrochloride (Tris/HCl, Sigma, Germany, cat. no. T5941) pH 7.5, 300 mM sodium chloride (NaCl, Sigma, Germany, cat. no. S7653), 5% (w/v) glycerol (Sigma, Germany, cat. no. G5516), 3 mM DTT dithiotreitol (DTT, Sigma, Germany, cat. no. D9779)) per gram wet weight cell pellet. Lysates were prepared by disruption of cells with a sonifier and subsequent clearing by centrifugation at 38000 g for 45 min at 4° C.
(§4) The lysate was applied to a GSTPrep FF 16/10 column (Amersham, Sweden, cat. no. 17-5234-01) equilibrated with lysis buffer. Removal of unbound material was with 3 column volumes (CV) lysis buffer. Elution was with 2 CV of elution buffer (50 mM Tris/HCl pH 7.5, 300 mM NaCl, 5% (w/v) glycerol, 20 mM glutathione (Sigma, Germany, cat. no. G4251)). Peak fractions were pooled and the protein transferred into storage buffer (50 mM Tris/HCl pH 7.5, 200 mM NaCl, 0.1 mM ethylene glycol-bis(2-aminoethylether)-N,N,N′,N′-tetraacetic acid (EGTA, Aldrich, Germany, cat. no. 23, 453-2), 1 mM DTT, 10% (w/v) glycerol, 0.5 M sucrose (Sigma, Germany, cat. no. SO389) by gel filtration on a PD10 desalting column (Amersham, Sweden, cat. no. 17-0851-01). Aliquots were shock frozen in liquid nitrogen and stored at −80° C.
(§5) Activation of Mnk1 and Mnk2a was at a concentration of 2.5 μM of either purified GST-Mnk1 or GST-Mnk2a by incubation with 150 nM pre-activated NHis-ERK2 (see ERK2 assay for preparation) and 50 μM adenosine triphosphate (ATP, Sigma, cat. no. A2699) in a buffer comprising 20 mM N-(2-hydroxyethyl)piperazine-N′-(2-ethanesulfonic acid) (HEPES, Fluka, Germany, cat. no 54459)/potassium hydroxide (KOH, Roth, Germany, cat. no 6751.1) pH 7.4, 10 mM magnesium chloride (MgCl2, Sigma, Germany, cat. no. M2670), 0.25 mM DTT, 0.05% (w/v) polyoxyethylene 20 stearylether (Brij 78, Sigma, Germany, cat. no. P4019) (HMDB buffer) for 45 min at 30° C.

human Mnk2a = human Mnk2a (Homo sapiens (Human), UniProt Q9HBH9); experiment: Mnk2a in vitro kinase assay (indirect fluorescence polarization); assay type: biochemical
human Mnk2a, sequence (Q9HBH9 whole entry): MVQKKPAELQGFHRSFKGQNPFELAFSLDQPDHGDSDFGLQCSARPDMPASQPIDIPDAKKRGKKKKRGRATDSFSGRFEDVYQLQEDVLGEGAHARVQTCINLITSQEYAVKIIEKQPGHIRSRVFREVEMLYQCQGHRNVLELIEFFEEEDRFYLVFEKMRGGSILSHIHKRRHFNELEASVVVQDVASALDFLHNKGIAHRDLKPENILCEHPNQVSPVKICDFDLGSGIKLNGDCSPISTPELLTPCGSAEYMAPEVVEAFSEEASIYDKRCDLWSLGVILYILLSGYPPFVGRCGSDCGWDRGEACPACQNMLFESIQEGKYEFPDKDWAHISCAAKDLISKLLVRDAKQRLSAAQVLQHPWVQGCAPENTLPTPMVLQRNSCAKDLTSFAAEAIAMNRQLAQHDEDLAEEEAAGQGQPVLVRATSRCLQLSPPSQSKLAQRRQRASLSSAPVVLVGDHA
Procedure: as §1, §2, §3, §4, §5

human Mnk1, sequence (Q9BUB5 other isoform, or with tags, fused parts or gaps): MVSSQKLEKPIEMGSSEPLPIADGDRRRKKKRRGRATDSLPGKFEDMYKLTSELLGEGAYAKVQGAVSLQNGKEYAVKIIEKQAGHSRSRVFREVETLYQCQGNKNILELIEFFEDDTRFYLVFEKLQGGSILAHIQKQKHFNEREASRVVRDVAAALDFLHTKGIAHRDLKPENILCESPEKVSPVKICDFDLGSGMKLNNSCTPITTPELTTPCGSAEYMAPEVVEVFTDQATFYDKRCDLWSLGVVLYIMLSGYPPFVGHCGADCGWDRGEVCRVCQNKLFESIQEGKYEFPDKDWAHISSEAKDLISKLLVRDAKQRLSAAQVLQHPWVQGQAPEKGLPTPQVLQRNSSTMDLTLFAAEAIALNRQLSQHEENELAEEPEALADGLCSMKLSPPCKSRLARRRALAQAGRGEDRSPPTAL

Row | Structure (SMILES) | reduction of phosphorylated eIF4E [1] | IC50 (human Mnk1) [nM] | IC50 (human Mnk2a) [nM]
1 | Nc1ncnc2n[nH]c(Nc3ccc(F)cc3)c12 [CGP57380] | strong reduction | – | –
2 | CCOc1cc(C(N)=O)ccc1Nc1ncnc2sc(C(N)=O)c(C)c12 [Example 2, 4-(4-Carbamoyl-2-ethoxyphenylamino)-5-methylthieno[2,3-d]pyrimidine-6-carboxamide] | – | 120 | 28
3 | COCCNC(=O)c1sc2ncnc(Nc3ccc(F)cc3OC3CCOCC3)c2c1C [Example 6, 4-(4-Fluoro-2-(tetrahydro-2H-pyran-4-yloxy)phenylamino)-N-(2-methoxyethyl)-5-methylthieno[2,3-d]pyrimidine-6-carboxamide] | – | 180 | 35
4 | Cc1c(C(=O)NCCCN(C)C)sc2ncnc(Nc3ccc(F)cc3OC3CCOCC3)c12 [Example 9, N-(3-(Dimethylamino)propyl)-4-(4-fluoro-2-(tetrahydro-2H-pyran-4-yloxy)phenyl-amino)-5-methylthieno[2,3-d]pyrimidine-6-carboxamide] | – | 100 | 27
5 | Cc1c(C(=O)NCCN2CCOCC2)sc2ncnc(Nc3ccc(F)cc3OC3CCOCC3)c12 [Example 10, 4-(4-Fluoro-2-(tetrahydro-2H-pyran-4-yloxy)phenylamino)-5-methyl-N-(2-morpholinoethyl)thieno[2,3-d]pyrimidine-6-carboxamide] | – | 210 | 34
6 | Cc1c(C(=O)NCCCN(C)C)sc2ncnc(Nc3ccc(C(F)(F)F)nc3OC3CCOCC3)c12 [Example 34, 4-(2-(Tetrahydro-2H-pyran-4-yloxy)-6-(trifluoromethyl)pyridin-3-ylamino)-N-(3-(dimethylamino)propyl)-5-methylthieno[2,3-d]pyrimidine-6-carboxamide] | – | 680 | 560
7 | Fc1ccc(Nc2ncnc3sc4c(c23)CCNC4)c(OC2CCOCC2)c1 [Example 41, [4-fluoro-2-(tetrahydro-2H-pyran-4-yloxy)-phenyl]-(5,6,7,8-tetrahydro-pyrido[4′,3′:4,5]thieno[2,3-d]pyrimidin-4-yl)-amine] | – | 210 | 110
8 | Cc1c(C(N)=O)sc2ncnc(Nc3ccc(F)cc3OC3CCN(Cc4ncon4)CC3)c12 [Example 48, 4-(2-(1-((1,2,4-Oxadiazol-3-yl)methyl)piperidin-4-yloxy)-4-fluorophenylamino)-5-methylthieno[2,3-d]pyrimidine-6-carboxamide] | – | 460 | 92
9 | Cc1c(C(=O)NCCCN(C)C)sc2ncnc(Nc3ccc(F)cc3OC(C)C)c12 [Example 53, N-(3-(Dimethylamino)propyl)-4-(4-fluoro-2-iso-propoxyphenylamino)-5-methylthieno[2,3-d]pyrimidine-6-carboxamide] | – | 35 | 6
